“Also recorded” adds a separate entry of the source.
Tests used:
[1] = Nickel assay: 2D-HPLC with nickel HisTrap column and His-tag antibodies; type: binding
Method: In principle, nickel is a transition metal like Fe, Cu and Zn. The nickel column can immobilize hexahistidine-tag (His-tag) recombinant proteins, such as recombinant antibodies harboring a His tag (His-Abs). In our experimental design, nickel forms a substantial coordination equilibrium with histidines via the imidazole ring structures to form a stable metal/ligand complex. This assay uses two different buffer reservoirs, a wash buffer (PBS) and an elution buffer (PBS containing 50 mM imidazole). To remove the His-Abs (14 KDa) from the nickel column, the washing buffer was switched to the elution buffer and the His-Abs dislodged from the column were detected by the 2D-HPLC (FIG. 3.1C, left). In a different phase of the experiment, the His-Abs solution was spiked with ERGO (14.5 mM) prior to injection into the HPLC system. […] The integrity of the eluted His-Abs was collected and confirmed by orbit trap mass spectrometry.
ERGO's metal-binding affinity was tested via a 2D-HPLC equipped with a nickel-based HisTrap HP column (Cytiva, Marlborough, Mass., USA). The 2D-HPLC was performed with a Hitachi LaChrom Elite L-2455 Diode Array Detector linked to a Hitachi L-2130 pump (Hitachi High-Technologies, Corp., Tokyo, Japan). […]

HeLa cells = experiment: DCFH-DA ROS scavenging assay in HeLa cells; type: cell-based
Description: We used a commercially available DCFH-DA (2′,7′-dichlorodihydrofluorescein diacetate) probe to assess the ROS scavenging power of ERGO in HeLa and neuroblastoma SH-SY5Y cells. Upon penetrating the cytoplasm, DCFH-DA is deacetylated by endogenous esterases to a non-fluorescent intermediate, followed by oxidation by free radicals. This generates a continuous and extended conjugation system, resulting in the production of highly fluorescent DCF (2′ 7′-dichlorofluorescein). In an aqueous condition, DCF has a maximal excitation and emission of 495 nm and 529 nm, respectively. Well-adhered HeLa or SH-SY5Y cells previously incubated with DCFH-DA were exposed to a commercial ROS initializer and ERGO concentrations ranging from 0-100 mM. […] Each point in the assay was measured in pentaplicate, p<0.0001.
On day 1, HeLa cells or SH-SY5Y cells were seeded into a 96-well plate with a density of 10,000 cells/mL. […] Immediately afterwards, fluorescence measurement began using a microplate reader (Biotek Industries, Agilent Technologies, Winooski, Vt., USA) with an excitation and emission wavelength of 485 nm and 528 nm, respectively. Each ERGO concentration was measured in pentaplicate.

With `C[N+](C)(C)[C@@H](Cc1c[nH]c(=S)[nH]1)C(=O)[O-]` [ERGO, L-ergothioneine] the “elution of His-tag antibodies from the nickel column in the presence of ERGO” value ([1]; His-Abs solution spiked with ERGO 14.5 mM, PBS wash buffer) was “eluted from the nickel column immediately by the wash buffer; also recorded: washed out immediately”, the “elution of His-tag camelid antibodies from the nickel column in the presence of ERGO” value ([1]; antibody injected with addition of ERGO 50 nM, PBS mobile phase) was “Right at the beginning of the run, His-tag camelid antibodies were eluted” and the “DCF fluorescence signal (ROS)” value (HeLa cells; ERGO 100 mM) was “nearly negligible; also recorded: quenches the fluorescence totally”. For the same compound, the “DCF fluorescence signal (ROS)” value (HeLa cells; ERGO starting from 5 mM) was “attenuates the fluorescence significantly”.
